Experimental findings from US20250073257A1, “SMALL MOLECULE AND SIRNA INHIBITORS AGAINST LIPOCALIN-2” (UNIVERSITY OF PUERTO RICO, priority 2021, published 2025) are described below.

Entries after “also recorded” stand apart in the source; their conditions may differ.

The test system of assay [1] is SUM149 cells. The assay can be described thus: Colony formation (clonogenic) assay, SUM149 cells. The settings on record: vs DMSO. Type of assay: cell-based, human. The method, then: Cell growth was assessed by colony formation assays: MDA-IBC3 cells (5.5×10^4 cells/mL) or SUM149 (5.0×10^4 cells/mL) were seeded into 6-well plates. Twenty-four hours later, siRNAs were added to the cells. Twenty-four hours (MDA-IBC3 cells) or forty-eight hours (SUM149) after transfection, 1500 cells for MDA-IBC3 and 1000 cells for SUM149 were seeded into 10-cm Petri dishes containing Hams F-12 (10% FBS, 0.1% antibiotic/antimycotic solution, 0.001% insulin from bovine pancreas, and 0.005% hydrocortisone), and incubated at 37° C. Twelve days (SUM149 cells) or 19 days (MDA-IBC3 cells) later, colony-forming cells were stained with 0.5% crystal violet solution. Colonies (with at least 50 cells) were counted under a light microscope (Olympus CKX41) in five random fields with a total magnification of 10×.
(§1) For cell viability, SUM149 (5.0×10^4 cells/mL) were seeded in 96-well plates. Twenty-four hours later, cells were treated with serial dilutions (0.01 μM, 0.1 μM, 1.0 μM, 10 μM, and 100 μM, final concentrations) of the LCN2 inhibitors. Seventy-two hours after treatment, cell viability was performed as above described, taking the DMSO (1%) treated OD values as the normalization control. For colony formation assays, SUM149 cells (5.0×10^4 cells/mL), MCF7 (4.5×10^4 cells/mL), MCF7-LCN2 (4.5×10^4 cells/mL), or MCF7-EV (4.5×10^4 cells/mL) were seeded into 24-well plates and incubated at 37° C. Twenty-four hours later, LCN2 inhibitors bought to Asinex corporation (North chestnut, NC) were dissolved in DMSO (0.2%) and added to the cells at 10 μM, 1 μM, and 0.1 μM (final concentrations). NT cells and DMSO (0.2%) treated cells were used as controls. SUM149 (500 cells) and MCF7 (3,000 cells) cells were seeded in 6-well plates per treatment for colony formation assays.

Another assay concerns p-Akt. The assay can be described thus: Akt/p-Akt measurements by Western blot. Type of assay: cell-based, human. Conditions: SUM149 cells; for total Akt protein levels: all doses and time-points tested. The method, then:
Cell lysates were collected on ice using lysis buffer (1% Triton X, 150 mM NaCl, 25 mM Tris HCl,0.4 mM NaVO4, 0.4 mM NaF and protease inhibitor cocktail from Sigma, St. Louis, MO, USA) and vortexed periodically for 30 min. Lysates were centrifuged for 15 min at 4° C., and supernatants were collected. Total protein concentrations were determined using Bio-Rad DC Protein Assay reagents (Bio-Rad) following the manufacturer's protocol. Equal amounts of protein for each sample (40 μg to 50 μg per lane) were separated by SDS-PAGE, blotted onto nitrocellulose membranes, blocked with 5% non-fat milk, and probed with the appropriate dilution of the corresponding primary antibody. Once incubated with the primary antibody, membranes were rinsed and incubated with the corresponding HRP-conjugated secondary antibody. Bound antibodies were detected using an enhanced chemiluminescence substrate followed by autoradiography using a FluorChem™ 8900 (Alpha Innotech Corporation, San Leandro, CA, USA). Primary antibodies: anti-LCN2 (AF1757) (24 kDa), (R&D System, MN, USA); Caspase 9 (9502) (47 kDa), Caspase 3 (9665) (35 kDa), Cleaved Caspase 9 (20750) (37 kDa), Cleaved Caspase 3 (9664) (17/19 kDa), PARP-1 (46D11) (89,116 kDa), CDK4 (D9G3D) (30 kDa), CDK6 (DCS83) (36 kDa), Cyclin E1 (HE12) (48 kDa), Cyclin E2 (4132) (48 kDa), p21/Waf1/Cip1 (12D1) (21 kDa), p27/Kip1 (D69C12) (27 kDa), Akt (4685) (60 kDa), p-Akt (Ser473) (4060) (60 kDa) (Cell Signaling, Danvers, MA, USA); anti-β-actin (42 kDa) (Sigma). Secondary antibodies: anti-goat IgG horseradish peroxidase (HRP) (HAF 109) (R&D Systems), anti-mouse and anti-rabbit IgG (HRP) (Cell Signaling).
SUM149 cells (5.0×10^4 cells/mL) were seeded in 10-cm Petri plates and incubated at 37° C. Twenty-four hours later, cells were treated with the LCN2 inhibitors ZINC00784494 and ZINC00640089 at 10 μM and 1 μM concentrations. NT and DMSO (0.2% final concentration) treated cells were used as controls. Cell pellets of each condition were collected at 15 minutes, 1 hour, and 24 hours after drug treatment. The p-AKT Akt and Akt protein levels were assessed by Western blots as above described.
On the technique in general: Immunoblotting shows a protein as a band on a membrane.

For the next assay, the system named is MCF7-LCN2 cells. Kind of assay: Colony formation assay, MCF7-LCN2 cells. It counts as cell-based, human. The settings on record: vs untreated cells. The method, then:
(§2) Ectopic LCN2 expression was performed in breast cancer MCF7 cells. Human LCN2 open reading frame (LCN2ORF) (RC207685, OriGene, Rockville, MD) or empty vector pCMV6-Entry (MCF7-EV) (PS100001, OriGene, Rockville, MD was stable transfected into MCF7 cells. MCF7 cells (4.0×10^4 cells/mL) were seeded in 6-well plates and incubated at 37° C. Twenty-four hours later, 5 μg of LCN2-ORF were mixed with Lipofectamine 2000 RNAiMax transfection reagent (Life Technologies) at a 1:1 (v/v) (plasmid: transfection reagent) in serum and antibiotic-free Opti-MEM medium (Life Technologies) and incubated at 37° C. Six hours later medium was replaced with MCF7 culture media and incubated at 37° C. Forty-eight hours later the antibiotic neomycin was added at a final concentration of 1.8 mg/mL for the selection of transduced MCF7 cells. After 2-3 weeks, independent colonies were picked and cultured separately as independent clones.
as §1

The test system of assay [2] is SUM149 cells. The assay can be described thus: Cell viability, Alamar Blue, SUM149 cells. Type of assay: cell-based. Conditions: Homo sapiens, 72 hours, vs DMSO, read-out: reduction of cell viability. The protocol:
MDA-IBC3 cells (5.5×10^4 cells/mL) or SUM149 (5.0×10^4 cells/mL) were seeded in 96-well plates. Twenty-four hours later, cells were transiently transfected with serial dilutions of LCN2-siRNA and NC-siRNA (12.5 nM, 25 nM, 50 nM, and 100 nM final concentrations) with Lipofectamine 2000 RNAiMax. Seventy-two hours after transfection, the medium was removed, and cell viability was measured using Alamar blue dye (Invitrogen, CA, USA) as previously described by. Optical density (OD) values were obtained spectrophotometrically in a plate reader (Bio-Rad) after 3 hours of dye incubation. In all cases, percentages of cell viability were obtained after blank OD subtraction, taking the untreated cells values as a normalization control.
For cell viability, SUM149 (5.0×10^4 cells/mL) were seeded in 96-well plates. Twenty-four hours later, cells were treated with serial dilutions (0.01 μM, 0.1 μM, 1.0 μM, 10 μM, and 100 μM, final concentrations) of the LCN2 inhibitors. Seventy-two hours after treatment, cell viability was performed as above described, taking the DMSO (1%) treated OD values as the normalization control. For colony formation assays, SUM149 cells (5.0×10^4 cells/mL), MCF7 (4.5×10^4 cells/mL), MCF7-LCN2 (4.5×10^4 cells/mL), or MCF7-EV (4.5×10^4 cells/mL) were seeded into 24-well plates and incubated at 37° C. […]
A general note: Alamar Blue is a resazurin reagent that responds to reducing activity.

A further assay relates to MCF7-EV cells. The assay can be described thus: Colony formation assay, MCF7-EV cells. Type of assay: cell-based, human. Conditions: 0.1 μM, 1 μM and 10 μM. The protocol:
as §2
For cell viability, SUM149 (5.0×10^4 cells/mL) were seeded in 96-well plates. Twenty-four hours later, cells were treated with serial dilutions (0.01 μM, 0.1 μM, 1.0 μM, 10 μM, and 100 μM, final concentrations) of the LCN2 inhibitors. Seventy-two hours after treatment, cell viability was performed as above described, taking the DMSO (1%) treated OD values as the normalization control. […]

The next assay concerns Caspase-3. Kind of assay: Caspase-3 fluorometric activity assay. Type of assay: cell-based, human. The settings on record: positive control, 0.5 nM; cell line not given. The protocol:
Caspase-3 activity was assessed using a caspase-3/CPP32 fluorometric assay kit (Bio Vision, CA, USA) as described in the manufacturer's protocol, with some modifications. Briefly, SUM149 (5.0×10^4 cells/mL) and MDA-IBC3 (5.5×10^4 cells/mL) were seeded in 10 cm Petri dishes and transiently transfected with siRNAs as above described. Docetaxel (0.5 nM final concentration) was used as a positive control. Seventy-two hours post-transfection cells were collected, protein extracts were obtained and incubated with the Asp-Glu-Val-Asp (DEVD) peptide substrate—which is conjugated to the 7-amino-4-trifluoromethyl coumarin (AFC)—at 37° C. for 60 min. Releasing of AFC was measured with a fluorometric plate reader (Varioskan LUX, ThermoFisher, USA) at an excitation wavelength of 400 nm and an emission wavelength of 505 nm. The fold-change increase in caspase-3 activity was determined by comparing the release of AFC from the siRNA-transfected cells with the AFC release by the untreated cells.

`O=C(NC(Nc1ncccn1)C(=O)c1ccccc1)c1ccccc1` (stereo not drawn) [ZINC00230567]: in the assay on SUM149 cells [1] (10 μM), the “reduction in number of colonies formed” value is given as 62%.
For `CC(=O)c1cccc(Nc2nc(-c3cc4ccccc4oc3=O)cs2)c1` [ZINC00784494], the p-AKT protein levels entry in the assay on p-Akt (10 μM and 1 μM) was “reduced p-Akt in a dose-dependent manner”. Further, the p-Akt protein levels result with p-Akt (10 μM and 1 μM, 15 minutes and 1 hour after treatment, vs DMSO) is “reduced”; with p-Akt (24 hours after treatment), “not observed”. Further, the “total Akt protein levels” value in the assay with p-Akt is reported as “unaltered”. The “reduction in number of colonies formed” value in the assay with SUM149 cells [1] (1 μM) is recorded as 43%; in the assay with SUM149 cells [1] (10 μM) it was 37%. Moreover, the “decrease in colony formation” value in the assay with MCF7-LCN2 cells (0.1 μM) is reported as 23%; in the assay with MCF7-LCN2 cells (1 μM), 41%; with MCF7-LCN2 cells (10 μM), 49%. For the same molecule, the cytotoxicity at 10 µM with SUM149 cells [2] came to 57%. Besides, the colony formation entry with MCF7-EV cells is on record as “did not cause any effect”.
`Cc1cc(-c2ccccc2)nc2cc(C(=O)N3CCCc4ccccc43)nn12` [ZINC00829534]: the “reduction in number of colonies formed” value in the assay with SUM149 cells [1] (10 μM) stood at 41%.
As for `CC(=O)O[C@@]12CO[C@@H]1C[C@H](O)[C@@]1(C)C(=O)[C@H](O)C3=C(C)[C@@H](OC(=O)[C@H](O)[C@@H](NC(=O)OC(C)(C)C)c4ccccc4)C[C@@](O)([C@@H](OC(=O)c4ccccc4)[C@H]21)C3(C)C` [Docetaxel], in the assay on Caspase-3, the “increase of caspase-3 activity” value is reported as “two-fold increase”.
With `O=C(CN1C(=O)c2cccc3cccc1c23)Nc1ccccc1C(F)(F)F` [ZINC00640089], the p-AKT protein levels result in the assay on p-Akt (10 μM and 1 μM) is “reduced p-Akt in a dose-dependent manner; also recorded: reduction”. In addition, in the assay on p-Akt, the “total Akt protein levels” value is reported as “unaltered”. Moreover, the “reduction in number of colonies formed” value with SUM149 cells [1] (10 μM) amounted to 42%. Moreover, the “decrease in colony formation” value in the assay on MCF7-LCN2 cells (0.1 μM) was 24%; with MCF7-LCN2 cells (1 μM), 54%; in the assay on MCF7-LCN2 cells (10 μM) it was 57%. The cytotoxicity at 10 µM in the assay with SUM149 cells [2] turned out to be 35%.
